Our source for the Kd values is patent publication US20240287138A1, “CYCLIC PEPTIDES FOR INHIBITING TNF RECEPTOR 1 ACTIVITY” (Merck Sharp & Dohme LLC, priority 2023, published 2024).

The structures appear in SMILES notation. Read-outs that look alike come from different tables or passages of the source. Numbered stars: 1 amine (or outer) side, 2 acyl side, 3 side chain; on linkers, the order of the positions; unused ones are H or OH. Bridge positions count the residues as written; N and C are the ends. Square brackets hold non-standard residues; d marks the D form. Peptide text beside a SMILES is read from it. Trp(βS-Me,7-OMe) = COc1cccc2c([C@H](C)[C@H](N)C(=O)O)c[nH]c12; Trp(7-CN) = N#Cc1cccc2c(C[C@H](N)C(=O)O)c[nH]c12; Trp(7-Cl) = N[C@@H](Cc1c[nH]c2c(Cl)cccc12)C(=O)O; Phe(3-CONH2) = NC(=O)c1cccc(C[C@H](N)C(=O)O)c1; Phe(4-CONH2) = NC(=O)c1ccc(C[C@H](N)C(=O)O)cc1; Phe(4-COOH) = N[C@@H](Cc1ccc(C(=O)O)cc1)C(=O)O; 4Pal(3S-Me) = C[C@@H](c1ccncc1)[C@H](N)C(=O)O; Trp(7-aza) = N[C@@H](Cc1c[nH]c2ncccc12)C(=O)O; Pip(5R-OH) = O=C(O)[C@@H]1CC[C@@H](O)CN1; αMeW = C[C@](N)(Cc1c[nH]c2ccccc12)C(=O)O; X1 = O=C([C@@H]1CC[C@H](N[*:1])C1)[*:2]; Pip(4-aza) = O=C(O)[C@@H]1CNCCN1; 4Pal = N[C@@H](Cc1ccncc1)C(=O)O; Gly(cBu) = N[C@H](C(=O)O)C1CCC1; NMeE = CN[C@@H](CCC(=O)O)C(=O)O; dHyp = O=C(O)[C@H]1C[C@H](O)CN1; Cit = NC(=O)NCCC[C@H](N)C(=O)O; Gly(N-CH2CH2OH) = O=C(O)CNCCO; Ahp(2) = CCCCC[C@H](N)C(=O)O; αMeS = C[C@](N)(CO)C(=O)O; Nle = CCCC[C@H](N)C(=O)O; Sar = CNCC(=O)O

Experiment [1] has as its target T1, human soluble TNFR1 (sTNFR1) (Homo sapiens, UniProt P19438).
T1 construct: made in house; host or cells: Sf21 (baculovirus)
T1 sequence (P19438 with tags, fused parts or gaps): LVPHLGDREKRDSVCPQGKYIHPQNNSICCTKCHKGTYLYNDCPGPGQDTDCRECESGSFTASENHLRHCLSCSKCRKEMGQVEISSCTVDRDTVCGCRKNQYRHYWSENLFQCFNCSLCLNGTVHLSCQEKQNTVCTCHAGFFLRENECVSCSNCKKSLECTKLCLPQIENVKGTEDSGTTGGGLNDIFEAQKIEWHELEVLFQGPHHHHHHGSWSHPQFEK
The experiment in a line: Human sTNFR1-peptide displacement assay (LanthaScreen Eu TR-FRET binding assay). Put shortly: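 Readout is the 665/615 nm TR-FRET ratio (Eu anti-His donor, streptavidin-Alexa647 acceptor), normalized to DMSO and saturating displacer, fit by Morrison-based five-parameter logistic for Kd^app. His-tagged sTNFR1 (1-211) prebound to 100 nM biotinylated peptide SEQ ID NO.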

Experiment [2] concerns the target T2, human TNFR1 extracellular domain (ECD) protein (Homo sapiens, UniProt P19438).
T2 construct: HRV 3C protease cleavage site (C); 6His (C, cleaved yes); made in house; host or cells: Sf21 insect cells (baculovirus), secreted
T2 sequence (P19438 30-211): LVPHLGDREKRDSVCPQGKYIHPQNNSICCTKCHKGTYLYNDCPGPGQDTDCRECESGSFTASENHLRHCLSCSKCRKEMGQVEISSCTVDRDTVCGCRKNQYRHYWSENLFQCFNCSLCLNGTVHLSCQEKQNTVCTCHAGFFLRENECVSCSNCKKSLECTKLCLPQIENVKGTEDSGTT
The experiment in a line: SPR binding affinity to captured human TNFR1 ECD. In a few lines: (§1)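 SPR kinetics: peptides over captured avi-biotinylated receptor ECDs, TNFR1 for affinity, TNFR2 run in parallel for off-target binding. Running buffer HEPES pH 7.4 with 150 mM NaCl, 3 mM EDTA, 0.05% P20, 2% DMSO; surface regenerated between analytes. Affinity derived from kon/koff.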
(SPR reads the build-up and loss of mass on a sensor chip optically.)

In experiment [3] the target is T3, human TNFR2 ECD protein (Homo sapiens, UniProt P20333).
T3 construct: HRV 3C protease cleavage site (C); 6His (C, cleaved yes); made in house; host or cells: Sf21 insect cells (baculovirus), secreted
T3 sequence (P20333 23-257): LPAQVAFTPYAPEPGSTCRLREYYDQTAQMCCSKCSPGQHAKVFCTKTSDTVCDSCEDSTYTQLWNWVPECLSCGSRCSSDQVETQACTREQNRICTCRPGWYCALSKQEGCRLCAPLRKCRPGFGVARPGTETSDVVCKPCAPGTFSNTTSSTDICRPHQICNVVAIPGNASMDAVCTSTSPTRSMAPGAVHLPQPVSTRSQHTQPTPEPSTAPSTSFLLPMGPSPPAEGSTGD
As to the kind of experiment: SPR off-target binding (selectivity) to human TNFR2 ECD. Put shortly:
as §1

Consider `CCCC[C@@H]1NC(=O)[C@@H]2CC[C@@H](C2)NC(=O)[C@H]([C@@H](C)c2c[nH]c3c(OC)cccc23)NC(=O)CN(C)C(=O)[C@H](Cc2ccc(C(=O)O)cc2)NC(=O)[C@H](Cc2ccc(C(N)=O)cc2)NC(=O)[C@](C)(CO)NC(=O)[C@H](Cc2c[nH]c3c(Cl)cccc23)NC(=O)[C@H](Cc2ccncc2)NC(=O)[C@H](CC(N)=O)NC(=O)[C@H]2C[C@H](O)CN2C(=O)[C@H](Cc2c[nH]c3ccccc23)NC(=O)[C@@H]2CC[C@@H](O)CN2C(=O)[C@H](Cc2ccncc2)NC1=O` [SEQ ID NO. 53] (cyclo([4Pal][Trp(7-Cl)][αMeS][Phe(4-CONH2)][Phe(4-COOH)][Sar][Trp(βS-Me,7-OMe)][X1][Nle][4Pal][Pip(5R-OH)]W[dHyp]N)), for which the Kd was 0.09 nM in experiment [1] (displacement of biotinylated peptide SEQ ID NO. 1 from sTNFR1, 20 point titration, 5-parameter fit based on Morrison equation (tight binding), read-out: TR-FRET Kd^app); 0.02 nM in experiment [2] (biotinylated human TNFR1 ECD on streptavidin chip, from kon and koff, read-out: SPR hTNFR1 KD); above 1000 nM in experiment [3] (biotinylated human TNFR2 ECD on streptavidin chip, read-out: SPR hTNFR2 KD).

`COc1cccc2c([C@H](C)[C@@H]3NC(=O)CN(C)C(=O)[C@H](Cc4cccc(C(N)=O)c4)NC(=O)[C@H](Cc4ccc(C(=O)O)cc4)NC(=O)[C@](C)(CO)NC(=O)[C@H](Cc4c[nH]c5c(Cl)cccc45)NC(=O)[C@H](Cc4ccncc4)NC(=O)[C@H](CC(N)=O)NC(=O)[C@H]4C[C@H](O)CN4C(=O)[C@H](Cc4c[nH]c5ccccc45)NC(=O)[C@@H]4CC[C@@H](O)CN4C(=O)[C@H](Cc4ccncc4)NC(=O)[C@H](CCCNC(N)=O)NC(=O)[C@@H]4CC[C@@H](C4)NC3=O)c[nH]c12` [SEQ ID NO. 54] (cyclo([4Pal][Trp(7-Cl)][αMeS][Phe(4-COOH)][Phe(3-CONH2)][Sar][Trp(βS-Me,7-OMe)][X1][Cit][4Pal][Pip(5R-OH)]W[dHyp]N)): the Kd in experiment [1] was 0.24 nM; in experiment [2] it was 0.07 nM; in experiment [3], above 1000 nM.

`CCCC[C@@H]1NC(=O)CSC[C@@H](C(N)=O)NC(=O)[C@](C)(Cc2c[nH]c3ccccc23)NC(=O)CN(C)C(=O)[C@H](Cc2ccc(O)cc2)NC(=O)[C@H](Cc2ccc(C(=O)O)cc2)NC(=O)[C@](C)(CO)NC(=O)[C@H](Cc2c[nH]c3c(Cl)cccc23)NC(=O)[C@H](Cc2ccncc2)NC(=O)[C@H](CC(N)=O)NC(=O)[C@H](CCC(=O)O)N(C)C(=O)[C@H](Cc2c[nH]c3ncccc23)NC(=O)[C@H](C2CCC2)NC(=O)[C@H](Cc2ccncc2)NC1=O` [SEQ ID NO. 56] ({CH2CO}-[Nle][4Pal][Gly(cBu)][Trp(7-aza)][NMeE]N[4Pal][Trp(7-Cl)][αMeS][Phe(4-COOH)]Y[Sar][αMeW]C-NH2; thioether N-14): the Kd in experiment [1] was 2 nM; in experiment [2] it was 27.2 nM; in experiment [3], above 1000 nM.

As to `CCCCC[C@@H]1NC(=O)[C@@H]2CC[C@@H](C2)NC(=O)[C@H]([C@@H](C)c2c[nH]c3c(OC)cccc23)NC(=O)CN(C)C(=O)[C@H](Cc2ccc(C(N)=O)cc2)NC(=O)[C@H](Cc2ccc(C(N)=O)cc2)NC(=O)[C@](C)(CO)NC(=O)[C@H](Cc2c[nH]c3c(C#N)cccc23)NC(=O)[C@H](Cc2ccc(C(=O)O)cc2)NC(=O)[C@H](CC(N)=O)NC(=O)[C@H]2C[C@H](O)CN2C(=O)[C@H](Cc2c[nH]c3ccccc23)NC(=O)[C@H](CCC(N)=O)NC(=O)[C@H]([C@@H](C)c2ccncc2)NC1=O` [SEQ ID NO. 70] (cyclo([Ahp(2)][4Pal(3S-Me)]QW[dHyp]N[Phe(4-COOH)][Trp(7-CN)][αMeS][Phe(4-CONH2)][Phe(4-CONH2)][Sar][Trp(βS-Me,7-OMe)][X1])), the Kd in experiment [1] was 0.12 nM; in experiment [2] it was 0.07 nM; in experiment [3], above 1000 nM.

With `CCCC[C@@H]1NC(=O)[C@@H]2CC[C@@H](C2)NC(=O)[C@H]([C@@H](C)c2c[nH]c3c(OC)cccc23)NC(=O)CN(C)C(=O)[C@H](Cc2ccc(O)cc2)NC(=O)[C@H](Cc2ccc(C(=O)O)cc2)NC(=O)[C@](C)(CO)NC(=O)[C@H](Cc2c[nH]c3c(Cl)cccc23)NC(=O)[C@H](Cc2ccncc2)NC(=O)[C@H](CC(N)=O)NC(=O)CN(CCO)C(=O)[C@H](Cc2c[nH]c3ccccc23)NC(=O)[C@@H]2CNCCN2C(=O)[C@H](Cc2ccncc2)NC1=O` [SEQ ID NO. 72] (cyclo([4Pal][Trp(7-Cl)][αMeS][Phe(4-COOH)]Y[Sar][Trp(βS-Me,7-OMe)][X1][Nle][4Pal][Pip(4-aza)]W[Gly(N-CH2CH2OH)]N)), the Kd in experiment [1] is 0.09 nM; in experiment [2], 0.05 nM; in experiment [3], above 1000 nM.
